According to paper PMC9229919, “4-Aminoquinoline-Based Adamantanes as Potential Anticholinesterase Agents in Symptomatic Treatment of Alzheimer’s Disease” (Pharmaceutics, 2022):
Like-named read-outs stand apart in the source and are kept apart here.

Legend:
[1] = Ferric reducing antioxidant power (FRAP) assay; conditions: for FRAP: mean ± standard error of three experiments;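 on FRAP: expressed as µM Fe2+ equivalents from an FeSO4·7H2O standard curve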
Procedure: . All the chemicals were purchased from Sigma-Aldrich (St. Louis, MO, USA), except for tripyridyltriazine (TPTZ) (Fluka, Buchs, Switzerland) and FeCl3 (Kemika, Zagreb, Croatia). The FRAP assay was assessed according to Benzie and Strain [53] with slight procedure adjustments for 96-well microplates. The method is based on the reduction of the ferric-tripyridyltriazine (Fe^3+-TPTZ) complex to ferrous tripyridyltriazine (Fe^2+-TPTZ) by the action of electron-donating compounds at a low pH. Briefly, the FRAP reagent was prepared by mixing acetate buffer (300 mM, pH 3.6), a solution of 10 mM TPTZ in 40 mM HCl, and 20 mM FeCl3 at 10:1:1 (v/v/v). Then, 240 μL of FRAP reagent and 10 μL of sample solution were added to a 96-well plate and incubated at 37 °C for 60 min. The absorbance was measured at 593 nm using a microplate reader (Infinite M200PRO, Tecan Austria GmbH, Salzburg, Austria) against a blank. The reducing capacity was determined for 10 and 100 µM compound concentrations. […]. All measurements were performed in three independent experiments. FRAP values, denominating the reduction of ferric-tripyridyltriazine (Fe^3+-TPTZ) to ferrous tripyridyltriazine (Fe^2+-TPTZ) by 4-aminoquinolines were calculated based on a standard curve obtained using […].

[2] = Reverse-phase thin-layer chromatographic lipophilicity (RF, RM0); assay type: physicochemical; conditions: for RM0: intercept of RM = RM0 + bC; for b: slope of RM = RM0 + bC; for RF, Methanol/Water/Hydrochloric acid (conc.), mobile phase I / RF, Dioxane/Water/Hydrochloric acid (conc.), mobile phase II / RF, Methanol/Water/Hydrochloric acid (conc.), mobile phase II / RF, Acetone/Water/Hydrochloric acid (conc.), mobile phase III / RF, Dioxane/Water/Hydrochloric acid (conc.), mobile phase III / RF, Methanol/Water/Hydrochloric acid (conc.), mobile phase III / RF, Dioxane/Water/Hydrochloric acid (conc.), mobile phase IV / RF, Acetone/Water/Hydrochloric acid (conc.), mobile phase IV / RF, Methanol/Water/Hydrochloric acid (conc.), mobile phase IV / RF, Acetone/Water/Hydrochloric acid (conc.), mobile phase IX / RF, Methanol/Water/Hydrochloric acid (conc.), mobile phase IX / RF, Dioxane/Water/Hydrochloric acid (conc.), mobile phase V / RF, Acetone/Water/Hydrochloric acid (conc.), mobile phase V / RF, Methanol/Water/Hydrochloric acid (conc.), mobile phase V / RF, Dioxane/Water/Hydrochloric acid (conc.), mobile phase VI / RF, Acetone/Water/Hydrochloric acid (conc.), mobile phase VI / RF, Methanol/Water/Hydrochloric acid (conc.), mobile phase VI / RF, Acetone/Water/Hydrochloric acid (conc.), mobile phase VII / RF, Methanol/Water/Hydrochloric acid (conc.), mobile phase VII / RF, Acetone/Water/Hydrochloric acid (conc.), mobile phase VIII / RF, Methanol/Water/Hydrochloric acid (conc.), mobile phase VIII: RP-18 silica; for RF, Methanol/Water/Hydrochloric acid (conc.), mobile phase I: I = 90%MeOH/5%H2O/5%HCl; for RF, Dioxane/Water/Hydrochloric acid (conc.), mobile phase II: II = 80%Dioxane/15%H2O/5%HCl; for RF, Methanol/Water/Hydrochloric acid (conc.), mobile phase II: II = 85%MeOH/10%H2O/5%HCl; for RF, Acetone/Water/Hydrochloric acid (conc.), mobile phase III: III = 70%AC/25%H2O/5%HCl; for RF, Dioxane/Water/Hydrochloric acid (conc.), mobile phase III: III = 70%Dioxane/25%H2O/5%HCl; for RF, Methanol/Water/Hydrochloric acid (conc.), mobile phase III: III = 80%MeOH/15%H2O/5%HCl; for RF, Dioxane/Water/Hydrochloric acid (conc.), mobile phase IV: IV = 60%Dioxane/35%H2O/5%HCl; for RF, Acetone/Water/Hydrochloric acid (conc.), mobile phase IV: IV = 65%AC/30%H2O/5%HCl; for RF, Methanol/Water/Hydrochloric acid (conc.), mobile phase IV: IV = 75%MeOH/20%H2O/5%HCl; for RF, Acetone/Water/Hydrochloric acid (conc.), mobile phase IX: IX = 40%AC/55%H2O/5%HCl; for RF, Methanol/Water/Hydrochloric acid (conc.), mobile phase IX: IX = 50%MeOH/45%H2O/5%HCl; for RF, Dioxane/Water/Hydrochloric acid (conc.), mobile phase V: V = 50%Dioxane/45%H2O/5%HCl; for RF, Acetone/Water/Hydrochloric acid (conc.), mobile phase V: V = 60%AC/35%H2O/5%HCl; for RF, Methanol/Water/Hydrochloric acid (conc.), mobile phase V: V = 70%MeOH/25%H2O/5%HCl; for RF, Dioxane/Water/Hydrochloric acid (conc.), mobile phase VI: VI = 40%Dioxane/55%H2O/5%HCl; for RF, Acetone/Water/Hydrochloric acid (conc.), mobile phase VI: VI = 55%AC/40%H2O/5%HCl; for RF, Methanol/Water/Hydrochloric acid (conc.), mobile phase VI: VI = 65%MeOH/30%H2O/5%HCl; for RF, Acetone/Water/Hydrochloric acid (conc.), mobile phase VII: VII = 50%AC/45%H2O/5%HCl; for RF, Methanol/Water/Hydrochloric acid (conc.), mobile phase VII: VII = 60%MeOH/35%H2O/5%HCl; for RF, Acetone/Water/Hydrochloric acid (conc.), mobile phase VIII: VIII = 45%AC/50%H2O/5%HCl; for RF, Methanol/Water/Hydrochloric acid (conc.), mobile phase VIII: VIII = 55%MeOH/40%H2O/5%HCl
Procedure: Chromatographic determination of lipophilicity
Merck, Darmstadt, Germany). The mobile phase contained organic modifier (methanol, acetone or dioxane), water and hydrochloric acid.
Methanol was varied in the range […]
with an increment of 10%. […]
before chromatogram development. The solvent developing distance was 4.5 cm. Detection of […]
All experiments were performed at ambient temperature (22±2 °C). Retention parameters were calculated as previously described. […]

recombinant human AChE = biological target: T1, recombinant human AChE (Homo sapiens, UniProt P22303); assay: biochemical; assay type: biochemical; conditions: for IS: IS = Ki(BChE)/Ki(AChE), IS > 1 selective to AChE
T1 construct: gift of Dr Florian Nachon (Armed Forces Biomedical Research Institute, Brétigny-sur-Orge, France)
Procedure: (§1) Acetylthiocholine (ATCh) and 5,5′-dithiobis(2-nitrobenzoic acid) (DTNB) were purchased from Sigma-Aldrich, St. Louis, MO, USA. ATCh was dissolved in water and DTNB in 0.1 M sodium phosphate buffer (pH 7.4). The 4-aminoquinilines were dissolved in DMSO and all further dilutions were made in water.
(§2) The sources of AChE and BChE were purified human BChE and recombinant human AChE that was kindly provided by Dr Florian Nachon (Département de Toxicologie, Armed Forces Biomedical Research Institute, Brétigny-sur-Orge, France). […] The enzymes were diluted in sodium phosphate buffer 0.1 M (pH 7.4) containing 0.1% BSA.
(§3) Enzyme activities were measured spectrophotometrically using a slightly modified Ellman method, as described earlier. […] At least three inhibitor concentrations for each substrate concentration were used in at least three experiments. The apparent inhibition constant (Ki,app) was calculated using the Hunter–Downs Equation and linear regression analysis:(1) Ki,app=vi·i/v0−vi=Ki+Ki/KS·s where the y-intercept determines the enzyme-inhibitor dissociation constant (Ki), while the x-intercept determines the enzyme-substrate dissociation constant, KS.
(§4) The Hunter–Downs Equation was used under the assumption that the substrate, due to relatively low concentrations used in experiments, would bind only to the catalytic site of the enzymes, while the inhibitors would bind to both CAS and/or PAs. This allowed the type of inhibition to be determined from Ki,app vs. substrate concentration ([S]) dependency on Hunter–Downs plot.
(§5) The final content of DMSO in the measurements was up to 0.2%. […] The measurements were performed at 25 °C on a Tecan Infinite M200Pro plate reader (Tecan Austria GmbH, Salzburg, Austria).

purified human BChE = biological target: T2, purified human BChE (Homo sapiens, UniProt P06276); assay: biochemical; assay type: biochemical
T2 construct: possibly also a gift of Dr Florian Nachon (the sentence is ambiguous)
Procedure: as §1, §2, §3, §4, §5

[3] = Acetone/Water/Hydrochloric acid (conc.)
[4] = Dioxane/Water/Hydrochloric acid (conc.)
[5] = Methanol/Water/Hydrochloric acid (conc.)
[6] = log (Ki/µM AChE), read-out: Y Measured 1 log(ki)Ache (converted)
[7] = ± standard error, 25 °C, ATCh substrate, read-out: Ki AChE
[8] = logarithm of Ki in µM, BChE, dependent variable of the QSAR model, read-out: Y Measured 2 log(ki)Bche, log (Ki/µM BChE) (converted)
[9] = ± standard error, 25 °C, ATCh substrate, read-out: Ki BChE

T2 sequence (P06276 29-602): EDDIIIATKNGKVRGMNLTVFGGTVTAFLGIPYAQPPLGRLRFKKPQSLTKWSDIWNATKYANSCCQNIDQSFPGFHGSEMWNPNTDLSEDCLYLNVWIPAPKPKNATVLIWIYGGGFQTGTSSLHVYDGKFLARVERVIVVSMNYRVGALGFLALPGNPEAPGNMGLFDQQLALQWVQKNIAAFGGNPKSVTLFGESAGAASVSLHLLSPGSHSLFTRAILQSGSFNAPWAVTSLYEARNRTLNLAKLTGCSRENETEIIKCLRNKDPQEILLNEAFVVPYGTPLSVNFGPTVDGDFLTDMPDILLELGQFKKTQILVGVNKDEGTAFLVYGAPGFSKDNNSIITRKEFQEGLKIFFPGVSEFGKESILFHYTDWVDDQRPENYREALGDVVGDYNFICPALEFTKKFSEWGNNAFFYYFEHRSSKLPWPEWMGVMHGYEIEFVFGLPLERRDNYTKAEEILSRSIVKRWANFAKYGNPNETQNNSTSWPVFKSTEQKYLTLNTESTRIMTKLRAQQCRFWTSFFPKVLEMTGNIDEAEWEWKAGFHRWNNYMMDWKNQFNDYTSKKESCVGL
T1 sequence (P22303 32-614): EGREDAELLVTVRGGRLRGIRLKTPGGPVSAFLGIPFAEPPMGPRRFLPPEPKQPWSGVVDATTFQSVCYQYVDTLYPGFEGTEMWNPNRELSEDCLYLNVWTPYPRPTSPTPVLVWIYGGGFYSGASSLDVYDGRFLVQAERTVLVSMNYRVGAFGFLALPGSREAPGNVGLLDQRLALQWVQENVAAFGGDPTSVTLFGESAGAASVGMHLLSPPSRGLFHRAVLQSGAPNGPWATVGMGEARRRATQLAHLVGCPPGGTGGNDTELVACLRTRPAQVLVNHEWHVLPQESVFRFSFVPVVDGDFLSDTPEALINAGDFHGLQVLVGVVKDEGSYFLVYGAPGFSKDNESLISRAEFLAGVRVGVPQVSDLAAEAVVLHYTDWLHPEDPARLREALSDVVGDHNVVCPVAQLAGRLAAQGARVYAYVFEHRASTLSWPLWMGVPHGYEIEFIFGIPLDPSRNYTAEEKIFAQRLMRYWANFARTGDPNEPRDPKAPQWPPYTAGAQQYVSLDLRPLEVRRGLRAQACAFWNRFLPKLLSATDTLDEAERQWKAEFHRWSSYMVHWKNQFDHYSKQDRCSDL

Row | Compound | FRAP ([1]; 100 µM compound) [µM] | RM0 [2, 3] | b [2, 3] | RM0 [2, 4] | b [2, 4] | RM0 [2, 5] | b [2, 5] | RF, Methanol/Water/Hydrochloric acid (conc.), mobile phase I [2] | RF, Dioxane/Water/Hydrochloric acid (conc.), mobile phase II [2] | RF, Methanol/Water/Hydrochloric acid (conc.), mobile phase II [2] | RF, Acetone/Water/Hydrochloric acid (conc.), mobile phase III [2] | RF, Dioxane/Water/Hydrochloric acid (conc.), mobile phase III [2] | RF, Methanol/Water/Hydrochloric acid (conc.), mobile phase III [2] | RF, Dioxane/Water/Hydrochloric acid (conc.), mobile phase IV [2] | RF, Acetone/Water/Hydrochloric acid (conc.), mobile phase IV [2] | RF, Methanol/Water/Hydrochloric acid (conc.), mobile phase IV [2] | RF, Acetone/Water/Hydrochloric acid (conc.), mobile phase IX [2] | RF, Methanol/Water/Hydrochloric acid (conc.), mobile phase IX [2] | RF, Dioxane/Water/Hydrochloric acid (conc.), mobile phase V [2] | FRAP ([1]; 10 µM compound) [µM] | further results
1 | Cc1cc(C(C)(C)C)c(O)c(C(C)(C)C)c1 [BHT, butylated hydroxytoluene, reference compound] | 3021 ± 117 | – | – | – | – | – | – | – | – | – | – | – | – | – | – | – | – | – | – | – | –
2 | Clc1ccc2c(NCCNCC34CC5CC(CC(C5)C3)C4)ccnc2c1 [Compound 1] | 20 ± 4 | 1.738 | 2.883 | 0.8129 | 1.796 | 2.081 | 2.812 | 0.72 | 0.78 | 0.68 | 0.62 | 0.73 | 0.54 | 0.73 | 0.59 | 0.55 | 0.16 | 0.15 | 0.55 | 2.4 ± 1.3 | RF, Acetone/Water/Hydrochloric acid (conc.), mobile phase V [2]: 0.51; RF, Methanol/Water/Hydrochloric acid (conc.), mobile phase V [2]: 0.48; RF, Dioxane/Water/Hydrochloric acid (conc.), mobile phase VI [2]: 0.4; RF, Acetone/Water/Hydrochloric acid (conc.), mobile phase VI [2]: 0.41; RF, Methanol/Water/Hydrochloric acid (conc.), mobile phase VI [2]: 0.43; RF, Acetone/Water/Hydrochloric acid (conc.), mobile phase VII [2]: 0.36; RF, Methanol/Water/Hydrochloric acid (conc.), mobile phase VII [2]: 0.28; RF, Acetone/Water/Hydrochloric acid (conc.), mobile phase VIII [2]: 0.32; RF, Methanol/Water/Hydrochloric acid (conc.), mobile phase VIII [2]: 0.22; IS (recombinant human AChE): 1.8; Ki (recombinant human AChE; [6]): 1.2 µM; Ki (recombinant human AChE; [7]): 1.2 ± 0.1 µM; less potent inhibitors of BChE than compounds 3 or 4 (purified human BChE): about 3.2 times; Ki (purified human BChE; [8]): 2.1 µM; Ki (purified human BChE; [9]): 2.1 ± 0.2 µM
3 | Clc1ccc2c(NCCCCNCC34CC5CC(CC(C5)C3)C4)ccnc2c1 [Compound 3] | 38 ± 6 | 1.838 | 3.04 | 0.7921 | 1.783 | 2.348 | 3.092 | 0.71 | 0.78 | 0.65 | 0.63 | 0.74 | 0.51 | 0.74 | 0.58 | 0.53 | 0.15 | 0.11 | 0.55 | 0 | RF, Acetone/Water/Hydrochloric acid (conc.), mobile phase V [2]: 0.51; RF, Methanol/Water/Hydrochloric acid (conc.), mobile phase V [2]: 0.44; RF, Dioxane/Water/Hydrochloric acid (conc.), mobile phase VI [2]: 0.41; RF, Acetone/Water/Hydrochloric acid (conc.), mobile phase VI [2]: 0.41; RF, Methanol/Water/Hydrochloric acid (conc.), mobile phase VI [2]: 0.37; RF, Acetone/Water/Hydrochloric acid (conc.), mobile phase VII [2]: 0.35; RF, Methanol/Water/Hydrochloric acid (conc.), mobile phase VII [2]: 0.25; RF, Acetone/Water/Hydrochloric acid (conc.), mobile phase VIII [2]: 0.3; RF, Methanol/Water/Hydrochloric acid (conc.), mobile phase VIII [2]: 0.18; IS (recombinant human AChE): 0.9; Ki (recombinant human AChE; [6]): 1 µM; Ki (recombinant human AChE; [7]): 1 µM; Ki (purified human BChE; [8]): 0.92 µM; Ki (purified human BChE; [9]): 0.92 ± 0.04 µM
4 | Nc1c2c(nc3ccccc13)CCCC2 [Tacrine, reference compound] | 15 ± 2 | – | – | – | – | – | – | – | – | – | – | – | – | – | – | – | – | – | – | 3.4 ± 0.0 | reducing power (in words) ([1]; 10 and 100 µM): negligible reducing power
5 | Cc1c(C)c2c(c(C)c1O)CCC(C)(C(=O)O)O2 (stereo not drawn) [Trolox, reference compound] | 5812 ± 68 | – | – | – | – | – | – | – | – | – | – | – | – | – | – | – | – | – | – | 523 ± 8 | –
